Patent publication US5326902A, “Oxyalkyne compounds, pharmaceutical compositions containing them and processes for preparing such compounds and compositions” (Gruenenthal GmbH, priority 1992, dated 1994)

Legend:
[1] = molecular target: T1, 5-lipoxygenase (Rattus norvegicus, UniProt P12527); assay: Inhibition of 5-lipoxygenase in RBL-1-cells; format: cell-based; conditions: 20 μM [14C]-arachidonic acid, 20 μM calcium ionophore A 23 187, 10 minutes
T1 construct: endogenous in cells; host or cells: RBL-1 cells (rat basophilic leukemia)
T1 sequence (P12527 1-673): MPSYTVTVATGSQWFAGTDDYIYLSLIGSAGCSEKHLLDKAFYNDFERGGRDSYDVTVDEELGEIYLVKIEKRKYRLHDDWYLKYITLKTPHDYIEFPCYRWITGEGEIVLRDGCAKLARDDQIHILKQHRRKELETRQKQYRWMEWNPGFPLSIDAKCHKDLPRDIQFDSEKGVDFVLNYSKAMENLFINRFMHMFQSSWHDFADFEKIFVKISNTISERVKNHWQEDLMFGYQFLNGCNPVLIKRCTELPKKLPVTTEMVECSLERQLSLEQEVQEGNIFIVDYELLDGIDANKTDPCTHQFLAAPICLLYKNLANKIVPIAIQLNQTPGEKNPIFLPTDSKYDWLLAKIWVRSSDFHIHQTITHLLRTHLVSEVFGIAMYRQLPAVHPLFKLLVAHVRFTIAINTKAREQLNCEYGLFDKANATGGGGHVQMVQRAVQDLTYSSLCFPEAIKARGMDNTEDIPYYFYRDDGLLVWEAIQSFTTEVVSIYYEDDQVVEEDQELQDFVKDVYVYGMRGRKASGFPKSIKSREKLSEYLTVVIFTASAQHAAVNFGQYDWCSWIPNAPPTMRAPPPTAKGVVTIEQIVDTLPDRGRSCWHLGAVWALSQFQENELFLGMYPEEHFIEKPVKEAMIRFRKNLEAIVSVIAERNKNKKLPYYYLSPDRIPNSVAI
Protocol: To determine the inhibition of 5-lipoxygenase, rat basophilic leukemia cells (RBL-1-cells) were cultured in vitro, harvested by centrifugation, washed with 50 mM potassium phosphate buffer of pH 7.4, and then suspended in this buffer at 1×10^7 cells/ml. Indomethacin (10 μM) and calcium chloride (2 mM) were added to 1 ml portions of this suspension, and then the mixture was incubated either in the presence of a compound according to the invention in a concentration range of from 0,1 μM to 100 μM or in the presence of a solvent (ethanol and/or dimethyl sulfoxide) for 3 minutes and thereafter with 20 μM of [^14 C]-arachidonic acid and 20 μM of calcium ionophore A 23 187 for 10 minutes. The reaction was stopped by adding 20 μl of glacial acetic acid, and then the mixture was extracted with ethyl acetate to isolate the metabolites of arachidonic acid formed by the enzymatic action of 5-lipoxygenase. These were separated by thin layer chromatography using a solvent mixture known to be suitable for lipoxygenase products [c.f. Jakschik et al., Biochem. Biophys. Res. Commun. 102, 624 (1981)].
The distribution of radioactivity among the different metabolites of arachidonic acid was measured using a TLC Linear Analyzer. By correlating the percentage amounts of the products formed under the action of 5-lipoxygenase (5HETE, isomers of LTB4) in the absence as well as in the presence of different concentrations of compounds according to the invention, the IC50 -values, i.e. the concentrations which cause a 50% inhibition of 5-lipoxygenase, were determined graphically from semilogarithmic plots.

[2] = molecular target: T2, 12-lipoxygenase (Homo sapiens, UniProt P18054); assay: Inhibition of 12-HETE- and 5S,12S-DiHETE-synthesis induced by FMLP/merthiolate of human polymorphonuclear leukocytes and thrombocytes; format: cell-based; conditions: coincubation of human granulocytes and thrombocytes, read-out: IC50-value of the inhibitory action on 12-lipoxygenase
T2 sequence (P18054 1-663): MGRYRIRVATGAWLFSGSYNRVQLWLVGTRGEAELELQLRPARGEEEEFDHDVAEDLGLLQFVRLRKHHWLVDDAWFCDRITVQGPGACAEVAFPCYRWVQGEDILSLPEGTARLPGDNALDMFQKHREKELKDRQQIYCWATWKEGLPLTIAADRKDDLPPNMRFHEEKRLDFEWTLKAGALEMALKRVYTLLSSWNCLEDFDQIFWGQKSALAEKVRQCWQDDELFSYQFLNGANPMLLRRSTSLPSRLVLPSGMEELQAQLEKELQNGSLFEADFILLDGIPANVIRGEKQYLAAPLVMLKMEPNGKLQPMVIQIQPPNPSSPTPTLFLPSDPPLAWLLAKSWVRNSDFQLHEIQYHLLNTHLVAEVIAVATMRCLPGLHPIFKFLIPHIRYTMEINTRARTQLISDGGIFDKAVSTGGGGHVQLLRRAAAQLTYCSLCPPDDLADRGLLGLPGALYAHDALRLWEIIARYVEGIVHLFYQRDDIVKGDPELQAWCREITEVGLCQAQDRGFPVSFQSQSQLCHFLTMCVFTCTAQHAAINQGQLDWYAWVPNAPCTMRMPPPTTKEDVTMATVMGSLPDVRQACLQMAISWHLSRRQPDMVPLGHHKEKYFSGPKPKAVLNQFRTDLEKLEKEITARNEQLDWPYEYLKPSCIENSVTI
Protocol: Human granulocytes were isolated by dextran sedimentation and a Percoll gradient method and suspended in HBSS (Hanks buffered saline solution) at 1×10^7 cells/ml. The cells were incubated in the presence of a compound according to the invention or a solvent (ethanol and/or dimethyl sulfoxide) at 37° C. for 2 minutes, then with merthiolate (sodium ethylmercurithiosalicylate; 40 μM) for 2 minutes and thereafter with FMLP (formyl-methionyl-leucylphenylalanine; 10^-7 M) for 15 minutes. After solid phase extraction, the metabolites of arachidonic acid 5-HETE, LTB4, 6-trans-LTB4 -isomers, 20-OH-LTB4 and 20-COOH-LTB4 were identified by RP-HPLC (M. Haurand and L. Flohe in Biochem. Pharmacol. 38, 2129 to 2137 (1989)).
Coincubations of human granulocytes and thrombocytes were carried out and investigated for inhibition of leukotriene-synthesis induced by FMLP/merthiolate. 12-HETE and 5S, 12S-DiHETE were additionally included into the evaluation. The IC50 -value of the inhibitory action on 12-lipoxygenase was 5 μmolar when the compound prepared according to Example 1 was used.

[3] = molecular target: T2, 12-lipoxygenase; assay: Inhibition of 12-lipoxygenase in homogenates of human thrombocytes; format: biochemical; conditions: arachidonic acid 40 μM, indomethacin 10 μM, 25° C., read-out: IC50-value of the inhibitory action on 12-Lipoxygenase
Protocol: Human thrombocytes were suspended at 3×10^9 cells/ml, fumigated with nitrogen, and sonicated with ultrasonic energy while cooling in ice water. After centrifugation at 10.000 × g for 15 minutes, reduced glutathione (3 mM) was added. 1 ml portions of the 10,000 × g supernatant were incubated with a compound according to the invention or with ethanol at 25° C. for 4 minutes and then with 1-^14 C-labelled arachidonic acid (40 μM) for 7.5 minutes. In addition, indomethacin (10 μM) was added to each sample. The reaction was stopped by adding acetic acid, and then the metabolites of arachidonic acid were extracted with ethyl acetate and analyzed by thin layer chromatography. The distribution of the […] fractions was measured using a TLC-linear analyzer. The IC50 -values were determined graphically from semilogarithmic plots. The IC50 -value of the inhibitory action on 12-Lipoxygenase was 1 μmolar when the compound prepared according to Example 1 was used.

- IC50 [1]: 5 µM
- IC50 [2]: 5 µM
- IC50 [3]: 1 µM
SMILES: CC(=O)N(O)Cc1ccc(C(O)C#Cc2ccccc2)cc1 (racemic) [Example 1, N-Hydroxy-N-[4-[1-hydroxy-3-phenyl-prop-2-yn-1-yl]benzyl]acetamide]
